US12570666B2, “Furoindazole derivatives” (Bayer Aktiengesellschaft, priority 2019, dated 2026)

Target: T1, human GPR84 receptor (Homo sapiens, UniProt Q9NQS5)
T1 construct: frozen aliquots prepared by acCELLerate; host or cells: CHO-K1
Test: cAMP HTRF assay for identification of cellular GPR84 antagonists
Format: cell-based
Conditions: CHO-K1 cells stably expressing human GPR84; Forskolin + agonist 6-OAU (EC80); average or median values
Outline: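 Forskolin-stimulated CHO-K1 cells stably expressing human GPR84, agonist-suppressed cAMP measured by HTRF (665/620 ratio) after lysis. Compounds at 11 concentrations, 20 μM to 0.07 nM, duplicate; normalized to DMSO and no-agonist controls; IC50 by 4-parameter fit.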

T1 sequence (Q9NQS5 whole entry): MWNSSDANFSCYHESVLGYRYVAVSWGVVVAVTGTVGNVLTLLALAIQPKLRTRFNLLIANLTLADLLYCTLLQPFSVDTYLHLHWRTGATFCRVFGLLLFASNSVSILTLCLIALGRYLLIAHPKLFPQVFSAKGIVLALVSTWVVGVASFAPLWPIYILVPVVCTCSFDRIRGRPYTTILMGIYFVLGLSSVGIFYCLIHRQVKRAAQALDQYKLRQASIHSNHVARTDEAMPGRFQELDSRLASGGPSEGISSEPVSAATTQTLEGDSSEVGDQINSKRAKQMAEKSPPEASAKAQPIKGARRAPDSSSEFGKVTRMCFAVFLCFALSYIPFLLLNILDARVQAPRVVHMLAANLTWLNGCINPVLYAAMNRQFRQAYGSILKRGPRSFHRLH

Row | SMILES | IC50
1 | Cc1c(C(=O)NCc2cc(C3CC3)on2)oc2c1-c1nn(Cc3ccccn3)cc1CC2 [Example 7, N-[(5-cyclopropyl-1,2-oxazol-3-yl)methyl]-8-methyl-2-(pyridin-2-ylmethyl)-4,5-dihydro-2H-furo[2,3-g]indazole-7-carboxamide] | 150 nM
2 | Cc1c(C(=O)NCC2CCO2)oc2c1-c1nn(Cc3ccccn3)cc1CC2 (single isomer, unassigned) [Example 35-1] | 180 nM
3 | Cc1c(C(=O)NCC2CCOCC2)oc2c1-c1nn(Cc3ccccn3)cc1CC2 [Example 171] | 3690 nM
4 | Cc1c(C(=O)NCC2COc3ncccc3O2)oc2c1-c1nn(Cc3ccccn3)cc1CC2 (racemic) [Example 9, N-[(2R/S)-2,3-dihydro[1,4]dioxino[2,3-b]pyridin-2-ylmethyl]-8-methyl-2-(pyridin-2-ylmethyl)-4,5-dihydro-2H-furo[2,3-g]indazole-7-carboxamide] | 190 nM
5 | Cc1c(C(=O)NC[C@@H]2COCCO2)oc2c1-c1nn(Cc3ccccn3)cc1CC2 [Example 19-1, N-[(2R)-1,4-dioxan-2-ylmethyl]-8-methyl-2-(pyridin-2-ylmethyl)-4,5-dihydro-2H-furo[2,3-g]indazole-7-carboxamide] | 64 nM
6 | Cc1cccc(Cn2cc3c(n2)-c2c(oc(C(=O)NCCN4CCCC4)c2C)CC3)n1 [Example 69, 8-methyl-2-[(6-methylpyridin-2-yl)methyl]-N-[2-(pyrrolidin-1-yl)ethyl]-4,5-dihydro-2H-furo[2,3-g]indazole-7-carboxamide] | 750 nM
7 | Cc1c(C(=O)NCc2cc(CN3CCOCC3)on2)oc2c1-c1nn(Cc3ccccn3)cc1CC2 [Example 11, 8-methyl-N-{[5-(morpholin-4-ylmethyl)-1,2-oxazol-3-yl]methyl}-2-(pyridin-2-ylmethyl)-4,5-dihydro-2H-furo[2,3-g]indazole-7-carboxamide] | > 20000 nM
8 | Cc1cccc(Cn2cc3c(n2)-c2c(oc(C(=O)NCC4COc5ncccc5O4)c2C)CC3)n1 (racemic) [Example 70, N-[(2R/S)-2,3-dihydro[1,4]dioxino[2,3-b]pyridin-2-ylmethyl]-8-methyl-2-[(6-methylpyridin-2-yl)methyl]-4,5-dihydro-2H-furo[2,3-g]indazole-7-carboxamide] | 77 nM
9 | Cc1cccc(Cn2cc3c(n2)-c2c(oc(C(=O)NCc4ccn(C)n4)c2C)CC3)n1 [Example 71, 8-methyl-N-[(1-methyl-1H-pyrazol-3-yl)methyl]-2-[(6-methylpyridin-2-yl)methyl]-4,5-dihydro-2H-furo[2,3-g]indazole-7-carboxamide] | 360 nM
10 | Cc1c(C(=O)NCc2ccn(C)n2)oc2c1-c1nn(Cc3ccccn3)cc1CC2 [Example 34, 8-methyl-N-[(1-methyl-1H-pyrazol-3-yl)methyl]-2-(pyridin-2-ylmethyl)-4,5-dihydro-2H-furo[2,3-g]indazole-7-carboxamide] | 280 nM
11 | Cc1c(C(=O)NC[C@@H]2COCCO2)oc2c1-c1nn(C[C@H]3COCCO3)cc1C1(CC1)C2 [Example 126] | 39 nM
12 | Cc1c(C(=O)Nc2cccnc2)oc2c1-c1nn(Cc3ccccn3)cc1CC2 [Example 41, 8-methyl-N-(pyridin-3-yl)-2-(pyridin-2-ylmethyl)-4,5-dihydro-2H-furo[2,3-g]indazole-7-carboxamide] | 5420 nM
13 | Cc1ccc(Cn2cc3c(n2)-c2c(oc(C(=O)N[C@@H]4CCOC4)c2C)CC3)nc1 [Example 318, 8-methyl-2-[(5-methylpyridin-2-yl)methyl]-N-[(3R)-oxolan-3-yl]-4,5-dihydro-2H-furo[2,3-g]indazole-7-carboxamide] | 8310 nM
14 | C[C@@H]1Cc2oc(C(=O)NCc3ncco3)c(C(F)(F)F)c2-c2nn(C[C@H]3COCCO3)cc21 (single isomer, unassigned) [Example 256, (4R or 4S)-2-{[(2S)-1,4-dioxan-2-yl]methyl}-4-methyl-N-[(1,3-oxazol-2-yl)methyl]-8-(trifluoromethyl)-4,5-dihydro-2H-furo[2,3-g]indazole-7-carboxamide] | 14 nM

The next lines start with the values.

Row | IC50 | SMILES
15 | 57 nM | CC1(C)Cc2oc(C(=O)NC[C@@H]3COCCO3)c(C(F)(F)F)c2-c2nn(C[C@H]3COCCO3)cc21 [Example 267, N-{[(2R)-1,4-dioxan-2-yl]methyl}-2-{[(2S)-1,4-dioxan-2-yl]methyl}-4,4-dimethyl-8-(trifluoromethyl)-4,5-dihydro-2H-furo[2,3-g]indazole-7-carboxamide]
16 | 170 nM | Cc1c(C(=O)NC[C@@H]2CCCO2)oc2c1-c1nn(C[C@@H]3CN(C)CCO3)cc1CC2 [Example 103, 8-methyl-2-{[(2S)-4-methylmorpholin-2-yl]methyl}-N-[(2S)-tetrahydrofuran-2-ylmethyl]-4,5-dihydro-2H-furo[2,3-g]indazole-7-carboxamide]
17 | 10 nM | CC1Cc2oc(C(=O)NC[C@@H]3COCCO3)c(C(F)(F)F)c2-c2nn(C[C@H]3COCCO3)cc21 (single isomer, unassigned) [Example 254-1, (4R or 4S)-N-{[(2R)-1,4-dioxan-2-yl]methyl}-2-{[(2S)-1,4-dioxan-2-yl]methyl}-4-methyl-8-(trifluoromethyl)-4,5-dihydro-2H-furo[2,3-g]indazole-7-carboxamide]
18 | 8 nM | C[C@@H]1Cc2oc(C(=O)NC[C@@H]3COCCO3)c(C(F)(F)F)c2-c2nn(CC3CCN(C(=O)C4(O)CC4)CC3)cc21 (single isomer, unassigned) [Example 295, (4R or 4S)-N-{[(2R)-1,4-dioxan-2-yl]methyl}-2-{[1-(1-hydroxycyclopropane-1-carbonyl)piperidin-4-yl]methyl}-4-methyl-8-(trifluoromethyl)-4,5-dihydro-2H-furo[2,3-g]indazole-7-carboxamide]
19 | 151 nM | CN1CCC(Cn2cc3c(n2)-c2c(oc(C(=O)NC[C@@H]4CCCO4)c2C(F)(F)F)CC3)CC1 [Example 308, 2-[(1-methylpiperidin-4-yl)methyl]-N-{[(2S)-oxolan-2-yl]methyl}-8-(trifluoromethyl)-4,5-dihydro-2H-furo[2,3-g]indazole-7-carboxamide]
20 | 26 nM | O=C(NC[C@@H]1CCCO1)c1oc2c(c1C(F)(F)F)-c1nn(CC3CCOCC3)cc1CC2 [Example 243, 2-[(oxan-4-yl)methyl]-N-{[(2S)-oxolan-2-yl]methyl}-8-(trifluoromethyl)-4,5-dihydro-2H-furo[2,3-g]indazole-7-carboxamide]
21 | 28 nM | O=C(NC[C@@H]1CCCO1)c1oc2c(c1C1CC1)-c1nn(Cc3ccccn3)cc1CC2 [Example 119, 8-cyclopropyl-2-(pyridin-2-ylmethyl)-N-[(2S)-tetrahydrofuran-2-ylmethyl]-4,5-dihydro-2H-furo[2,3-g]indazole-7-carboxamide]
22 | 607 nM | Cc1c(C(=O)NC[C@@H]2CCCO2)oc2c1-c1nn(C[C@H]3COCCO3)cc1C(C(F)(F)F)C2 (mixture of isomers) [Example 266, (4±)-2-{[(2S)-1,4-dioxan-2-yl]methyl}-8-methyl-N-{[(2S)-oxolan-2-yl]methyl}-4-(trifluoromethyl)-4,5-dihydro-2H-furo[2,3-g]indazole-7-carboxamide]
23 | 58 nM | Cc1c(C(=O)NC[C@@H]2COCCO2)oc2c1-c1nn(C[C@@H]3CCCO3)cc1CC2 [Example 108, N[(2R)-1,4-dioxan-2-ylmethyl]-8-methyl-2-[(2S)-tetrahydrofuran-2-ylmethyl]-4,5-dihydro-2H-furo[2,3-g]indazole-7-carboxamide]
24 | 110 nM | Cc1cccnc1Cn1cc2c(n1)-c1c(oc(C(=O)NC[C@@H]3CCCO3)c1C)CC2 [Example 62, 8-methyl-2-[(3-methylpyridin-2-yl)methyl]-N-[(2S)-tetrahydrofuran-2-ylmethyl]-4,5-dihydro-2H-furo[2,3-g]indazole-7-carboxamide]
25 | 17 nM | Cc1c(C(=O)NC[C@@H]2CCCO2)oc2c1-c1nn(CC3(C)COC3)cc1CC2 [Example 93, 8-methyl-2-[(3-methyloxetan-3-yl)methyl]-N-[(2S)-tetrahydrofuran-2-ylmethyl]-4,5-dihydro-2H-furo[2,3-g]indazole-7-carboxamide]
26 | 9 nM | C[C@@H]1Cc2oc(C(=O)NC[C@@H]3CCCO3)c(C(F)(F)F)c2-c2nn(CC3CCN(C(=O)C4(C)CC4)CC3)cc21 (single isomer, unassigned) [Example 298, (4R or 4S)-4-methyl-2-{[1-(1-methylcyclopropane-1-carbonyl)piperidin-4-yl]methyl}-N-{[(2S)-oxolan-2-yl]methyl}-8-(trifluoromethyl)-4,5-dihydro-2H-furo[2,3-g]indazole-7-carboxamide]
27 | 2810 nM | O=C(NCCc1cnccn1)c1oc2c(c1C(F)(F)F)-c1nn(C[C@H]3COCCO3)cc1CC2 [Example 240, 2-{[(2S)-1,4-dioxan-2-yl]methyl}-N-[2-(pyrazin-2-yl)ethyl]-8-(trifluoromethyl)-4,5-dihydro-2H-furo[2,3-g]indazole-7-carboxamide]
28 | 496 nM | O=C(NCCc1nccs1)c1oc2c(c1C(F)(F)F)-c1nn(C[C@H]3COCCO3)cc1CC2 [Example 237, 2-[(2S)-1,4-Dioxan-2-ylmethyl]-N-[2-(1,3-thiazol-2-yl)ethyl]-8-(trifluormethyl)-4,5-dihydro-2H-furo[2,3-g]indazol-7-carboxamide]
29 | 8760 nM | O=C(NCCc1cccnc1)c1oc2c(c1C(F)(F)F)-c1nn(C[C@H]3COCCO3)cc1CC2 [Example 236, 2-[(2S)-1,4-Dioxan-2-ylmethyl]-N-[2-(pyridin-3-yl)ethyl]-8-(trifluormethyl)-4,5-dihydro-2H-furo[2,3-g]indazol-7-carboxamide]
30 | 16 nM | O=C(NC[C@@H]1CCCO1)c1oc2c(c1C(F)(F)F)-c1nn(Cc3ccncc3)cc1C1(CCC1)C2 [Example 280, 2′-(Pyridin-4-ylmethyl)-N-[(2S)-tetrahydrofuran-2-ylmethyl]-8′-(trifluormethyl)-2′,5′-dihydrospiro[cyclobutan-1,4′-furo[2,3-g]indazol]-7′-carboxamide]
